Measurements reported in article PMC12374861, “Synthetic Peptides Suppress Nervous Necrosis Virus Absorption and Improve Survival Rates in European Sea Bass” (Marine Biotechnology (New York, N.y.), 2025).
Ends that are not written are not given here.

Experiments:
SJNNV = type: cell-based, striped jack nervous necrosis virus (strain SJNag97); conditions: virus (MOI 0.01) incubated with 500 μg/mL peptide for 15 min at 25 °C, titrated in E-11 cells; control virus + PBS; representative of two independent assays; Fig. 2B
Method: Parental RGNNV (strain It/411/96), SJNNV (strain SJNag97), and reassortant isolates (RGNNV/SJNNV, 367.2.2005; SJNNV/RGNNV, 389/I96) were used. Viruses were propagated in E − 11 cells cultured in L-15 Leibovitz medium (BioWest) supplemented with 5% FBS, 2 mM L-glutamine, and 100 IU/mL penicillin/streptomycin (Thermo Fisher Scientific) at 25 °C. Infected monolayers were incubated at 25 °C until extensive cytopathic effect (CPE) developed. Supernatants were then harvested, centrifuged, and titrated in triplicate using the end-point dilution method, expressed as TCID₅₀/mL (Reed and Müench [1938]).
For in vitro antiviral assays, viral cultures (MOI 0.01) from parental and reassortant strains were incubated with peptides (single or combined) using a non-lethal concentration previously tested (500 μg/mL; León et al. [2020]), for 15 min at 25 °C with gentle agitation. Controls were virus samples incubated with PBS (100% viral activity). Treated samples were titrated as previously. After medium removal, cells were exposed to ten-fold viral dilutions in 2% FBS. CPE was monitored daily for 10 days, and viral titres were calculated as TCID₅₀/mL (Reed and Müench [1938]) and expressed as viral titre or percent inhibition relative to controls.
Fig. 2 Designed peptides, single or combined, reduce the NNV absorption in vitro. NNV parental or reassortant genotypes were incubated with 500 μg/mL of the synthetic peptides for 15 min. Then, the viruses were titrated in the E − 11 cell line. Control samples consisted on virus incubated with the same amount of phosphate buffer saline. (A) Viral titer (TCID50/mL) and (B) % of virus inhibition with respect to the controls are represented. Data are representative of two independent assays. […] Each bar was matched to a substance by its colour and by the order of the legend.

RGNNV [1] = assay: RGNNV in vivo bath challenge of European sea bass with peptide injection after infection; parameters: species or system European sea bass (Dicentrarchus labrax); conditions: for Clinical signs of VER disease, severity score: four-rank scale 1-4, sea bass, RGNNV bath challenge, 1 µg peptide/g i.m., Fig. 4B; for Relative percent survival (RPS): juvenile sea bass, bath infection 3.16 × 10^4 TCID₅₀ RGNNV/mL for 2 h, then intramuscular injection 1 µg peptide/g, 23 dpi, infected PBS group 63.6% survival; for RGNNV rdrp gene expression in the brain: Fig. 5B
Method: RGNNV In vivo Challenge of European Sea Bass
A total of 375 sea bass were randomly assigned to eight experimental groups (in duplicate) and acclimated for 15 days. Seven groups were infected by immersion (10 L; 3.16 × 10^4 TCID₅₀ RGNNV/mL; 2 h), while a mock-infected control received conditioned medium. […] Combinations were selected according to the results obtained in the competitive in vitro assay against RGNNV (see below). Disease signs and mortalities were monitored daily for 23 days post-infection (dpi) using a four-rank scale (Valero et al. [2021a]). Fish (n = 6/group/time-point) were sampled at 2 and 23 dpi, euthanized with clove oil, bled, and weighed. Brain, NNV target tissue, and head-kidney, major hematopoietic tissue in fish, were dissected, frozen in TRIzol (Life Technologies), and stored at − 80 °C.
For viral load analysis, total RNA was extracted from sea bass brain and head-kidney using TRIzol (Life Technologies) and from E − 11 cells using the GenJET RNA Purification Kit (Thermo Fisher Scientific), following manufacturer protocols. One microgram of RNA was DNAse I-treated (1 U/µL; Thermo Scientific), and cDNA was synthesized using Superscript IV Reverse Transcriptase (Invitrogen). qPCR was performed on a QuantStudio 5 Flex (Applied Biosystems) to quantify cp, rdrp and mx genes using PowerUp SYBR Green reagents (Applied Biosystems). The protocol included a 95 °C hold, then 40 cycles (95 °C; 15 s) and 60 °C for 1 min. Relative expression was calculated using the 2^⁻ΔCt method (Livak and Schmittgen [2001]), with ef1a as the endogenous control. Primers (Supplementary Data S2) were validated by melting curve analysis and negative controls.
Fish mortality was analysed using Kaplan–Meier survival curves with log-rank (Mantel–Cox) tests for significance. Relative gene expression was evaluated by one-way ANOVA (p ≤ 0.05) followed by Tukey’s test. Viral kinetics were compared between P4-treated and untreated groups using Student’s t-test (p ≤ 0.05) at specific time points. All analyses were performed with IBM SPSS Statistics 20.
Fig. 4 Therapeutic administration of synthetic peptides improves survival and symptomatology in […] (RGNNV)-infected European sea bass juveniles. […] A mock-infected group was treated twice with only PBS. (A) Kaplan–Meier survival curves; (B) Heat-map representing the cumulated number of fish showing clinical signs of VER disease attending to their severity: (1) changes of the color of the skin, slower rhythm of swimming and/or slower reaction to external stimuli as feeding; (2) alterations in the swimming balance and/or erratic swimming spasms; (3) continuous erratic swimming; and (4) complete incapacity to keep balance, swim and/or move without external stimuli. VER, viral encephalopathy and retinopathy
Fig. 5 Therapeutic administration of synthetic peptides decreased viral loads in the brain without additional mx gene regulation in the sea bass juveniles head-kidney infected with red-spotted grouper nervous necrosis virus (RGNNV). […] A mock-infected group was treated twice with only PBS. (A–C) Transcription levels of RGNNV cp (A) and rdrp (B) genes in the brain and (C) mx gene in the head-kidney. Data represent the relative gene expression mean ± SEM (n = 6). Different letters indicate significant differences among groups according to the ANOVA (p < 0.05)

E-11 cells = assay: MTT cytotoxicity test on E-11 cells; type: cell-based; conditions: 24 h at 25 °C, mean of n = 3, control = 100.0
Method: Synthetic peptides cytotoxicity on E − 11 cells was assessed using the MTT (Sigma) test with serial peptide dilutions (1000–4 µg/mL in L − 15 medium; n = 3; 24 h at 25 °C) as elsewhere (Cervera et al. [2024c]). Absorbance was measured at 570 nm (BMG Labtech); blanks lacked cells. Cell viability was calculated as the OD ratio of treated to untreated cells × 100, normalized at 690 nm.
Supplementary data S4: Cell viability (%) of E-11 cells after incubation with the synthetic peptides for 24 h. Data represent the mean ± SEM (n=3).

RGNNV [2] = assay: RGNNV adsorption efficiency, progeny production and replication kinetics in P4 pre-treated E-11 cells; type: cell-based, red-spotted grouper nervous necrosis virus
Method: Based on in vivo results (see below), the P4 effect on RGNNV replication was further assessed by analysing viral adsorption efficiency and progeny production, as previously (Valero et al. [2021b]) with slight modifications. Intracellular and extracellular viral kinetics were examined using semi-confluent E − 11 monolayers in 12-well plates (Sarstedt) treated with P4 (500 µg/mL) for 24 h; untreated cells served as controls. After treatment, supernatants were removed, cells washed thrice, and infected with RGNNV (MOI 0.01) for 45 min. Residual inoculum was collected, and monolayers washed and overlaid with L-15 for incubation at 25 °C with daily CPE monitoring. Supernatants were collected at 8, 12, 24, and 48 h post-infection (hpi); cells were washed, scraped and stored. For extracellular kinetics, supernatants were collected until 168 hpi. All samples were clarified by centrifugation (2000 × g, 10 min). Titrations were performed for: (i) total inoculated virus (TIV), (ii) non-attached virus (NAV), and (iii) viral progeny (VP). Assays were conducted in triplicate.
Formulas used for impact of synthetic peptides on RGNNV replication in vitro assay are the following: • AbsorbedvirusAV=TIV-NAV • AdsorptionefficacyAE=AV/TIV×100 • Productionrate(PR)=VP/AV • Relativeratioofproduction(RRP)=PRP4+RGNNV/PRRGNNV
Fig. 3 The pre-treatment with P4 synthetic peptide partially disrupts the replication of RGNNV in vitro. (A) Intracellular replication kinetics; (B) Viral production in cell supernatants; and (C, D) Genome synthesis in cell lysates by means of transcriptional levels of rdrp (C) and cp (D) genes. Monolayers of E-11 were incubated with 500 µg/mL of P4 or untreated for 24 h and then infected with […] nervous necrosis virus (RGNNV) (n = 3). Supernatants and cell lysates were collected at 8, 12, 24, 48 h post-infection (hpi). Additionally, supernatants were sampled at 168 hpi for extracellular replication kinetic analysis. Infectious titers were determined by the end-point titration method (Reed and Müench [1938]) and expressed as mean Log10 TCID50/mL ± standard error of the mean (SEM). Relative expression was presented as the mean ± SEM (n = 3). Asterisks indicate significant differences among groups according to the Student-t test (p < 0.05)

[3] = qPCR relative to ef1a, 2 dpi, n = 6, 1 µg peptide/g i.m. after RGNNV bath challenge

Substance | % of virus inhibition with respect to the controls, SJNNV (SJNNV) [%] | Clinical signs of VER disease, severity score (RGNNV [1]) | Relative percent survival (RPS) (RGNNV [1]) [%] | RGNNV rdrp gene expression in the brain (RGNNV [1]; [3]) | Viability (%) of E-11 cells, mean (E-11 cells; peptide 0.00411 mg/mL) [%] | Viability (%) of E-11 cells, mean (E-11 cells; peptide 0.01234 mg/mL) [%] | Viability (%) of E-11 cells, mean (E-11 cells; peptide 0.03704 mg/mL) [%] | Viability (%) of E-11 cells, mean (E-11 cells; peptide 0.11111 mg/mL) [%] | Viability (%) of E-11 cells, mean (E-11 cells; peptide 0.33333 mg/mL) [%] | Viability (%) of E-11 cells, mean (E-11 cells; peptide 1.00000 mg/mL) [%] | AE, adsorption efficiency (RGNNV [2]; AE = AV/TIV × 100, E-11 cells pre-treated with P4 500 µg/mL 24 h, untreated cells 99.05%) [%] | Intracellular viral replication titre at 48 h post-infection (RGNNV [2]; E-11 cells pre-treated with P4 500 µg/mL 24 h, RGNNV, cell lysates, 48 hpi, untreated cells 2.40 × 10⁶, n = 3, Fig. 3A) | Viral release in cell supernatants at 48 h post-infection (RGNNV [2]; E-11 cells pre-treated with P4 500 µg/mL 24 h, RGNNV, supernatants, 48 hpi, untreated cells 6.77 × 10^4, n = 3, Fig. 3B) | Viral progeny (VP) (RGNNV [2]; E-11 cells pre-treated with P4 500 µg/mL 24 h, then RGNNV MOI 0.01, untreated cells 1.40 × 10^8) | Attached virus (AV), Log ± SEM (RGNNV [2]; E-11 cells pre-treated with P4 500 µg/mL for 24 h, then RGNNV MOI 0.01 for 45 min, triplicate) | Attached virus (AV) (RGNNV [2]; E-11 cells pre-treated with P4 500 µg/mL for 24 h, washed, infected with RGNNV MOI 0.01 for 45 min, AV = TIV − NAV, triplicate, untreated cells 9.20 × 10^5 in Table 2) | PR, production rate (RGNNV [2]; PR = VP/AV, P4 pre-treated E-11 cells, untreated cells 151.57) | RRP, relative ratio of production (RGNNV [2]; RRP = PR(P4+RGNNV)/PR(RGNNV)) | RGNNV cp gene expression in the brain (RGNNV [1]; qPCR relative to ef1a, 2 dpi, n = 6, 1 µg peptide/g i.m. after RGNNV bath challenge, Fig. 5A)
SVRLSVPSLETPEETTA-NH2 [Peptide P7] | 90 | ≤ 4 | 68.8 | effectively blocked | 149.6 | 125.7 | 138.9 | 116.6 | 119.8 | 131.6 |  |  |  |  |  |  |  |  | 
LLWTSSGKEQR-NH2 [Peptide P6] | 90 |  |  |  | 157.5 | 139.2 | 138.9 | 152.9 | 146.5 | 128.1 |  |  |  |  |  |  |  |  | 
PDPTDNDHTFD-NH2 [Peptide P4] |  | 1 | 81.3 | lowered | 87.4 | 102.6 | 92.4 | 110.6 | 100.5 | 106.4 | 98.99 | 1.64 × 10^4 TCID₅₀/mL | 3.36 × 10^3 TCID₅₀/mL | 2.46 × 10^7 TCID50/mL | 5.96 ± 0.005 | 9.21 × 10^5 TCID50/mL | 26.76 | 0.18 | lowered
ALQATRGAVVAKWW-NH2 [Peptide P5] |  |  |  |  | 126.6 | 116.7 | 116.4 | 122.7 | 104.3 | 115.8 |  |  |  |  |  |  |  |  | 
TTKAANPQPRRRANNRRRS-NH2 [Peptide P1] | 90 |  |  |  | 123.5 | 129.9 | 100.1 | 96.6 | 109.3 | 91.5 |  |  |  |  |  |  |  |  | 
